Assay results: PubChem BioAssay (NCI)
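In this assay, cells in 96-well plates receive the compound at five concentrations for 48 hours. Endpoints are linearly interpolated between the surrounding concentrations. The concentration for full growth arrest is given as TGI.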

Each compound was assayed on SNB-19 CNS (assay: DTP human tumour cell line panel, 48 h).

Compound | TGI [µM]
O=C(c1ccccc1)c1ccc2nc3n(c2c1)C(c1c(F)cccc1F)SC3 (stereo unspecified) | > 100
COc1nc(C)nc2sc3c(c12)CCCC3 | > 100
C=C(Cl)c1c(OC)cccc1OCc1ccccc1 | > 100
Nc1nc(Cl)c(N)c(NCC2(CO)CCC2)n1 | > 100
c1ccc2c(C3CCN(CCN4CCOCC4)C3)c[nH]c2c1 (stereo unspecified) | > 100
COc1ccc(OC)c2sc(N3C(=O)/C(=C/c4ccc(Cl)cc4)N=C3c3ccccc3)nc12 | > 100

Each compound was assayed on HCT-116 colon (assay: DTP human tumour cell line panel, 48 h).

Compound | TGI [µM]
CC(=O)C(=[N+]=[N-])C(=O)NCC#N | > 10
O=C(c1ccccc1)c1ccc2nc3n(c2c1)C(c1c(F)cccc1F)SC3 (stereo unspecified) | 13.5
COc1nc(C)nc2sc3c(c12)CCCC3 | > 100
C=C(Cl)c1c(OC)cccc1OCc1ccccc1 | > 100
Nc1nc(Cl)c(N)c(NCC2(CO)CCC2)n1 | > 100
c1ccc2c(C3CCN(CCN4CCOCC4)C3)c[nH]c2c1 (stereo unspecified) | > 100
COc1ccc(OC)c2sc(N3C(=O)/C(=C/c4ccc(Cl)cc4)N=C3c3ccccc3)nc12 | > 100

Each compound was assayed on SK-MEL-2 melanoma (assay: DTP human tumour cell line panel, 48 h).

Compound | TGI [µM]
CC(=O)C(=[N+]=[N-])C(=O)NCC#N | > 10
O=C(c1ccccc1)c1ccc2nc3n(c2c1)C(c1c(F)cccc1F)SC3 (stereo unspecified) | 31.2
COc1nc(C)nc2sc3c(c12)CCCC3 | > 100
C=C(Cl)c1c(OC)cccc1OCc1ccccc1 | > 100
Nc1nc(Cl)c(N)c(NCC2(CO)CCC2)n1 | > 100
c1ccc2c(C3CCN(CCN4CCOCC4)C3)c[nH]c2c1 (stereo unspecified) | > 100
COc1ccc(OC)c2sc(N3C(=O)/C(=C/c4ccc(Cl)cc4)N=C3c3ccccc3)nc12 | > 100

Each compound was assayed on PC-3 prostate (assay: DTP human tumour cell line panel, 48 h).

Compound | TGI [µM]
CC(=O)C(=[N+]=[N-])C(=O)NCC#N | > 10
O=C(c1ccccc1)c1ccc2nc3n(c2c1)C(c1c(F)cccc1F)SC3 (stereo unspecified) | > 80.7
COc1nc(C)nc2sc3c(c12)CCCC3 | > 100
C=C(Cl)c1c(OC)cccc1OCc1ccccc1 | > 100
Nc1nc(Cl)c(N)c(NCC2(CO)CCC2)n1 | > 100
c1ccc2c(C3CCN(CCN4CCOCC4)C3)c[nH]c2c1 (stereo unspecified) | > 100
COc1ccc(OC)c2sc(N3C(=O)/C(=C/c4ccc(Cl)cc4)N=C3c3ccccc3)nc12 | > 100

What follows are compounds tested on SK-MEL-28 melanoma (assay: DTP human tumour cell line panel, 48 h).

Compound | TGI [µM]
CC(=O)C(=[N+]=[N-])C(=O)NCC#N | > 10
O=C(c1ccccc1)c1ccc2nc3n(c2c1)C(c1c(F)cccc1F)SC3 (stereo unspecified) | > 70.5
COc1nc(C)nc2sc3c(c12)CCCC3 | > 100
C=C(Cl)c1c(OC)cccc1OCc1ccccc1 | > 100
Nc1nc(Cl)c(N)c(NCC2(CO)CCC2)n1 | > 100
c1ccc2c(C3CCN(CCN4CCOCC4)C3)c[nH]c2c1 (stereo unspecified) | > 100
COc1ccc(OC)c2sc(N3C(=O)/C(=C/c4ccc(Cl)cc4)N=C3c3ccccc3)nc12 | > 100

These compounds were tested on NCI-H23 lung (assay: DTP human tumour cell line panel, 48 h).

Compound | TGI [µM]
CC(=O)C(=[N+]=[N-])C(=O)NCC#N | > 10
O=C(c1ccccc1)c1ccc2nc3n(c2c1)C(c1c(F)cccc1F)SC3 (stereo unspecified) | > 61.7
COc1nc(C)nc2sc3c(c12)CCCC3 | > 100
C=C(Cl)c1c(OC)cccc1OCc1ccccc1 | > 100
Nc1nc(Cl)c(N)c(NCC2(CO)CCC2)n1 | > 100
c1ccc2c(C3CCN(CCN4CCOCC4)C3)c[nH]c2c1 (stereo unspecified) | > 100
COc1ccc(OC)c2sc(N3C(=O)/C(=C/c4ccc(Cl)cc4)N=C3c3ccccc3)nc12 | > 100

These compounds were tested on A498 renal (assay: DTP human tumour cell line panel, 48 h).

Compound | TGI [µM]
CC(=O)C(=[N+]=[N-])C(=O)NCC#N | > 10
O=C(c1ccccc1)c1ccc2nc3n(c2c1)C(c1c(F)cccc1F)SC3 (stereo unspecified) | 13.5
COc1nc(C)nc2sc3c(c12)CCCC3 | > 100
C=C(Cl)c1c(OC)cccc1OCc1ccccc1 | > 100
Nc1nc(Cl)c(N)c(NCC2(CO)CCC2)n1 | > 100
c1ccc2c(C3CCN(CCN4CCOCC4)C3)c[nH]c2c1 (stereo unspecified) | > 100
COc1ccc(OC)c2sc(N3C(=O)/C(=C/c4ccc(Cl)cc4)N=C3c3ccccc3)nc12 | > 100

These compounds were tested on OVCAR-3 ovarian (assay: DTP human tumour cell line panel, 48 h).

Compound | TGI [µM]
CC(=O)C(=[N+]=[N-])C(=O)NCC#N | > 10
O=C(c1ccccc1)c1ccc2nc3n(c2c1)C(c1c(F)cccc1F)SC3 (stereo unspecified) | 24.1
COc1nc(C)nc2sc3c(c12)CCCC3 | > 100
C=C(Cl)c1c(OC)cccc1OCc1ccccc1 | > 100
Nc1nc(Cl)c(N)c(NCC2(CO)CCC2)n1 | > 100
c1ccc2c(C3CCN(CCN4CCOCC4)C3)c[nH]c2c1 (stereo unspecified) | > 100
COc1ccc(OC)c2sc(N3C(=O)/C(=C/c4ccc(Cl)cc4)N=C3c3ccccc3)nc12 | > 100

What follows are compounds tested on MDA-MB-231 breast (assay: DTP human tumour cell line panel, 48 h).

Compound | TGI [µM]
CC(=O)C(=[N+]=[N-])C(=O)NCC#N | > 10
O=C(c1ccccc1)c1ccc2nc3n(c2c1)C(c1c(F)cccc1F)SC3 (stereo unspecified) | > 100
COc1nc(C)nc2sc3c(c12)CCCC3 | > 100
C=C(Cl)c1c(OC)cccc1OCc1ccccc1 | > 100
Nc1nc(Cl)c(N)c(NCC2(CO)CCC2)n1 | > 100
c1ccc2c(C3CCN(CCN4CCOCC4)C3)c[nH]c2c1 (stereo unspecified) | > 100
COc1ccc(OC)c2sc(N3C(=O)/C(=C/c4ccc(Cl)cc4)N=C3c3ccccc3)nc12 | > 100

The compounds below were run on A549 NSCLC (assay: DTP human tumour cell line panel, 48 h).

Compound | TGI [µM]
CC(=O)C(=[N+]=[N-])C(=O)NCC#N | > 10
O=C(c1ccccc1)c1ccc2nc3n(c2c1)C(c1c(F)cccc1F)SC3 (stereo unspecified) | > 84.8
C=C(Cl)c1c(OC)cccc1OCc1ccccc1 | > 100
Nc1nc(Cl)c(N)c(NCC2(CO)CCC2)n1 | > 100
c1ccc2c(C3CCN(CCN4CCOCC4)C3)c[nH]c2c1 (stereo unspecified) | > 100
COc1ccc(OC)c2sc(N3C(=O)/C(=C/c4ccc(Cl)cc4)N=C3c3ccccc3)nc12 | > 100

What follows are compounds tested on CAKI-1 renal (assay: DTP human tumour cell line panel, 48 h).

Compound | TGI [µM]
CC(=O)C(=[N+]=[N-])C(=O)NCC#N | > 10
O=C(c1ccccc1)c1ccc2nc3n(c2c1)C(c1c(F)cccc1F)SC3 (stereo unspecified) | 44.4
COc1nc(C)nc2sc3c(c12)CCCC3 | > 100
C=C(Cl)c1c(OC)cccc1OCc1ccccc1 | > 100
Nc1nc(Cl)c(N)c(NCC2(CO)CCC2)n1 | > 100
c1ccc2c(C3CCN(CCN4CCOCC4)C3)c[nH]c2c1 (stereo unspecified) | > 100
COc1ccc(OC)c2sc(N3C(=O)/C(=C/c4ccc(Cl)cc4)N=C3c3ccccc3)nc12 | > 100

These compounds were tested on OVCAR-4 ovarian (assay: DTP human tumour cell line panel, 48 h).

Compound | TGI [µM]
CC(=O)C(=[N+]=[N-])C(=O)NCC#N | > 10
O=C(c1ccccc1)c1ccc2nc3n(c2c1)C(c1c(F)cccc1F)SC3 (stereo unspecified) | > 73.6
COc1nc(C)nc2sc3c(c12)CCCC3 | > 100
C=C(Cl)c1c(OC)cccc1OCc1ccccc1 | > 100
Nc1nc(Cl)c(N)c(NCC2(CO)CCC2)n1 | > 100
c1ccc2c(C3CCN(CCN4CCOCC4)C3)c[nH]c2c1 (stereo unspecified) | > 100

These compounds were tested on HOP-62 NSCLC (assay: DTP human tumour cell line panel, 48 h).

Compound | TGI [µM]
CC(=O)C(=[N+]=[N-])C(=O)NCC#N | > 10
O=C(c1ccccc1)c1ccc2nc3n(c2c1)C(c1c(F)cccc1F)SC3 (stereo unspecified) | 52.2
COc1nc(C)nc2sc3c(c12)CCCC3 | > 100
C=C(Cl)c1c(OC)cccc1OCc1ccccc1 | > 100
Nc1nc(Cl)c(N)c(NCC2(CO)CCC2)n1 | > 100
c1ccc2c(C3CCN(CCN4CCOCC4)C3)c[nH]c2c1 (stereo unspecified) | > 100
COc1ccc(OC)c2sc(N3C(=O)/C(=C/c4ccc(Cl)cc4)N=C3c3ccccc3)nc12 | > 100

The compounds below were run on ACHN renal (assay: DTP human tumour cell line panel, 48 h).

Compound | TGI [µM]
CC(=O)C(=[N+]=[N-])C(=O)NCC#N | > 10
O=C(c1ccccc1)c1ccc2nc3n(c2c1)C(c1c(F)cccc1F)SC3 (stereo unspecified) | 24.8
COc1nc(C)nc2sc3c(c12)CCCC3 | > 100
C=C(Cl)c1c(OC)cccc1OCc1ccccc1 | > 100
Nc1nc(Cl)c(N)c(NCC2(CO)CCC2)n1 | > 100
c1ccc2c(C3CCN(CCN4CCOCC4)C3)c[nH]c2c1 (stereo unspecified) | > 100
COc1ccc(OC)c2sc(N3C(=O)/C(=C/c4ccc(Cl)cc4)N=C3c3ccccc3)nc12 | > 100

These compounds were tested on COLO 205 colon (assay: DTP human tumour cell line panel, 48 h).

Compound | TGI [µM]
CC(=O)C(=[N+]=[N-])C(=O)NCC#N | > 10
O=C(c1ccccc1)c1ccc2nc3n(c2c1)C(c1c(F)cccc1F)SC3 (stereo unspecified) | 21.7
COc1nc(C)nc2sc3c(c12)CCCC3 | > 100
C=C(Cl)c1c(OC)cccc1OCc1ccccc1 | > 100
Nc1nc(Cl)c(N)c(NCC2(CO)CCC2)n1 | > 100
COc1ccc(OC)c2sc(N3C(=O)/C(=C/c4ccc(Cl)cc4)N=C3c3ccccc3)nc12 | > 100
